This note sets out measurements from publication PMC7115587 (European Journal of Medicinal Chemistry, 2014).

The subject of data set [1] is CQ resistant W2 strain of P. falciparum. The data set can be described thus: In vitro antimalarial activity. The data set is classed as cell-based, Plasmodium falciparum.
For data set [2], the system named is HCT116 (colon cancer cell line) cells. The data set can be described thus: In vitro cytotoxicity.

The structures appear in SMILES notation.

For the molecule `O=C1C(=O)N(CC(CO)NCCNc2ccnc3cc(Cl)ccc23)c2ccccc21` (stereo not drawn) [Compound 11a, 1-{2-[2-(7-Chloro-quinolin-4-ylamino)-ethylamino]-3-hydroxy-propyl}-1H-indole-2,3-dione], in data set [1], the “antimalarial activity (in words)” value is recorded as “better activity than chloroquine”.

Consider `O=C1C(=O)N(CC(CO)NCCCNc2ccnc3cc(Cl)ccc23)c2ccc(Cl)cc21` (stereo not drawn) [Compound 11f, 5-Chloro-1-{2-[3-(7-Chloro-quinolin-4-ylamino)-propylamino]-3-hydroxy-propyl}-1H-indole-2,3-dione], for which the “cytotoxicity (in words)” value in data set [2] was “devoid of any cytotoxicity”.

With `O=C1C(=O)N(CC(CO)NCCNc2ccnc3cc(Cl)ccc23)c2ccc(Cl)cc21` (stereo not drawn) [Compound 11b, 5-Chloro-1-{2-[2-(7-Chloro-quinolin-4-ylamino)-ethylamino]-3-hydroxy-propyl}-1H-indole-2,3-dione], the “cytotoxicity (in words)” value in data set [2] is reported as “devoid of any cytotoxicity”.
